pIC50: −log10 of the molar value.

T1 sequence (P08069 999-1274 limits assumed): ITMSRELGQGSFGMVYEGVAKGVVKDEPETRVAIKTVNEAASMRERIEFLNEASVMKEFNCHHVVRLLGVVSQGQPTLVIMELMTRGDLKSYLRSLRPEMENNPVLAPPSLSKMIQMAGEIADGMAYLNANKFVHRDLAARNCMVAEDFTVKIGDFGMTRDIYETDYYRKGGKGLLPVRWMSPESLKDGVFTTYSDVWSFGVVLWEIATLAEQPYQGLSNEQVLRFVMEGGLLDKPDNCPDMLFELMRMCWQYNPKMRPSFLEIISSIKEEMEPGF

This assay addresses T1, IGF-1R Ba/F3 (Homo sapiens, UniProt P08069).
T1 construct: fused on or other part: TEL- (or BCR-) IGF-1R in Ba/F3: the kinase part holds the site
Kind of assay: Ba/F3 Cell Viability Inhibition Assay (IGF-1R Ba/F3). Format: cell-based, murine. The note with it: Tel-TK transformed Ba/F3 cells, 48 hours, Britelite luminescence. The gist of the method:
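IL-3-independent murine Ba/F3 cells transformed with a TEL/BCR-fused IGF-1R kinase were seeded at 3750 cells/well and exposed to serially diluted compound for 48 h at 37 °C. Viability was read by Britelite luminescence. IC50 is the concentration giving 50% of DMSO-control viability, from a logistic fit.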
For `CCNC(C)(C)C(=O)N1CCC(c2cc(C)c(Nc3ncc(Cl)c(Nc4cc(C)[nH]n4)n3)cc2C)CC1` [Compound 175, 1-(4-(4-(5-chloro-4-(5-methyl-1H-pyrazol-3-ylamino)pyrimidin-2-ylamino)-2,5-dimethylphenyl)piperidin-1-yl)-2-(ethylamino)-2-methylpropan-1-one], the negative logarithm of the IC50 (pIC50) is 8.30. In the case of `Cc1cc(Nc2nc(Nc3cc(C)c(C4CCN(C(=O)CCN5CCCC5)CC4)cc3C)ncc2Cl)n[nH]1` [Compound 226, 1-(4-(4-(5-chloro-4-(5-methyl-1H-pyrazol-3-ylamino)pyrimidin-2-ylamino)-2,5-dimethylphenyl)piperidin-1-yl)-3-(pyrrolidin-1-yl)propan-1-one], the pIC50 is 7.21. The result for `Cc1cc(Nc2nc(Nc3cc(C)c(C4CCN(C(=O)n5cnnn5)CC4)cc3F)ncc2Cl)n[nH]1` [Compound 140, (4-(4-(5-chloro-4-(5-methyl-1H-pyrazol-3-ylamino)pyrimidin-2-ylamino)-5-fluoro-2-methylphenyl)piperidin-1-yl)(1H-tetrazol-1-yl)methanone] reads 6.86; that for `Cc1cc(Nc2nc(Nc3cc(C)c(C4CC[N+]([O-])(C5CCOCC5)CC4)cc3F)ncc2Cl)n[nH]1` (stereo not drawn) [Compound 294, 4-(4-(5-chloro-4-(5-methyl-1H-pyrazol-3-ylamino)pyrimidin-2-ylamino)-5-fluoro-2-methylphenyl)-1-(tetrahydro-2H-pyran-4-yl)piperidine 1-oxide], 7.19. The result for `CCN1CCC(c2cc(C)c(Nc3ncc(C(F)(F)F)c(Nc4cc(C)[nH]n4)n3)cc2C)CC1` [Compound 221, N2-(4-(1-ethylpiperidin-4-yl)-2,5-dimethylphenyl)-N4-(5-methyl-1H-pyrazol-3-yl)-5-(trifluoromethyl)pyrimidine-2,4-diamine] reads 7.47; that for `Cc1cc(Nc2nc(Nc3cc(C)c(C4CCN(CC#N)CC4)cc3F)ncc2Cl)n[nH]1` [Compound 199, 2-(4-(4-(5-chloro-4-(5-methyl-1H-pyrazol-3-ylamino)pyrimidin-2-ylamino)-5-fluoro-2-methylphenyl)piperidin-1-yl)acetonitrile], 7.11; that for `Cc1cc(Nc2nc(Nc3cc(C)c(C4CCN(C(=O)[C@@H]5CCN5)CC4)cc3F)ncc2Cl)n[nH]1` [Compound 132, (S)-azetidin-2-yl(4-(4-(5-chloro-4-(5-methyl-1H-pyrazol-3-ylamino)pyrimidin-2-ylamino)-5-fluoro-2-methylphenyl)piperidin-1-yl)methanone], 6.79. The result for `Cc1cc(Nc2nc(Nc3cc(C)c(C4CCN(C(=O)C5CNC5=O)CC4)cc3F)ncc2Cl)n[nH]1` (stereo not drawn) [Compound 119, 3-(4-(4-(5-chloro-4-(5-methyl-1H-pyrazol-3-ylamino)pyrimidin-2-ylamino)-5-fluoro-2-methylphenyl)piperidine-1-carbonyl)azetidin-2-one] reads 5.52; that for `Cc1cc(Nc2nc(Nc3cc(C)c(C4CCN(C(C)C(N)=O)CC4)cc3F)ncc2Cl)n[nH]1` (stereo not drawn) [Compound 49, 2-(4-(4-(5-chloro-4-(5-methyl-1H-pyrazol-3-ylamino)pyrimidin-2-ylamino)-5-fluoro-2-methylphenyl)piperidin-1-yl)propanamide], 7.82. `Cc1cc(C2CCN(C(=O)CN(C)C)CC2)c(C)cc1Nc1ncc(Cl)c(Nc2cc(C(F)(F)F)[nH]n2)n1` [Compound 223, 1-(4-(4-(5-chloro-4-(5-(trifluoromethyl)-1H-pyrazol-3-ylamino)pyrimidin-2-ylamino)-2,5-dimethylphenyl)piperidin-1-yl)-2-(dimethylamino)ethanone]: the pIC50 is 7.44. The result for `Cc1cc(Nc2nc(Nc3cc(C)c(C4CCN(C(=O)C5CN(C)C5)CC4)cc3F)ncc2Cl)n[nH]1` [Compound 117, (4-(4-(5-chloro-4-(5-methyl-1H-pyrazol-3-ylamino)pyrimidin-2-ylamino)-5-fluoro-2-methylphenyl)piperidin-1-yl)(1-methylazetidin-3-yl)methanone] reads 7.00; that for `Cc1cc(Nc2nc(Nc3cc(C)c(C4CCN(Cc5c(C)noc5C)CC4)cc3F)ncc2Cl)n[nH]1` [Compound 19, 5-Chloro-N2-(4-(1-((3,5-dimethylisoxazol-4-yl)methyl)piperidin-4-yl)-2-fluoro-5-methylphenyl)-N4-(5-methyl-1H-pyrazol-3-yl)pyrimidine-2,4-diamine], 7.25; that for `CNC(=O)CN1CCCC(c2cc(C)c(Nc3ncc(Cl)c(Nc4cc(C)[nH]n4)n3)cc2C)C1` (stereo not drawn) [Compound 44, 2-(3-(4-(5-chloro-4-(5-methyl-1H-pyrazol-3-ylamino)pyrimidin-2-ylamino)-2,5-dimethylphenyl)piperidin-1-yl)-N-methylacetamide], 7.82.

Consider `Cc1cc(Nc2nc(Nc3cc(C)c(C4CCN(CC(N)=O)CC4)cc3F)ncc2Cl)n[nH]1` [Compound 39, 2-(4-(4-(5-Chloro-4-(5-methyl-1H-pyrazol-3-ylamino)pyrimidin-2-ylamino)-5-fluoro-2-methylphenyl)piperidin-1-yl)acetamide], for which the negative logarithm of the IC50 (pIC50) is 7.72. The result for `Cc1cc(Nc2nc(Nc3cc(C)c(C4CCN(S(=O)(=O)CCCN5C[C@@H](O)[C@H](O)C5)CC4)cc3C)ncc2Cl)n[nH]1` [Compound 196, (3R,4R)-1-(3-(4-(4-(5-chloro-4-(5-methyl-1H-pyrazol-3-ylamino)pyrimidin-2-ylamino)-2,5-dimethylphenyl)piperidin-1-ylsulfonyl)propyl)pyrrolidine-3,4-diol] reads 6.43; that for `Cc1cc(Nc2nc(Nc3cc(C(F)(F)F)c(C4CCN(C)CC4)cc3F)ncc2Cl)n[nH]1` [Compound 216, 5-chloro-N2-(2-fluoro-4-(1-methylpiperidin-4-yl)-5-(trifluoromethyl)phenyl)-N4-(5-methyl-1H-pyrazol-3-yl)pyrimidine-2,4-diamine], 7.33.

As for `Cc1cc(Nc2nc(Nc3cc(C)c(C4CCCCN4C)cc3C)ncc2Cl)n[nH]1` (stereo not drawn) [Compound 16, 5-chloro-N2-(2,5-dimethyl-4-(1-methylpiperidin-2-yl)phenyl)-N4-(5-methyl-1H-pyrazol-3-yl)pyrimidine-2,4-diamine], the pIC50 is 7.72. The result for `Cc1cc(Nc2nc(Nc3cc(C)c(C4CCN(C(=O)C(C)(C)N)CC4)cc3C)ncc2Cl)n[nH]1` [Compound 89, 2-amino-1-(4-(4-(5-chloro-4-(5-methyl-1H-pyrazol-3-ylamino)pyrimidin-2-ylamino)-2,5-dimethylphenyl)piperidin-1-yl)-2-methylpropan-1-one] reads 7.64.

On to `CNC(C)(C)C(=O)N1CCC(c2cc(C)c(Nc3ncc(Cl)c(Nc4cc(C)[nH]n4)n3)cc2Cl)CC1` [Compound 88, 1-(4-(2-chloro-4-(5-chloro-4-(5-methyl-1H-pyrazol-3-ylamino)pyrimidin-2-ylamino)-5-methylphenyl)piperidin-1-yl)-2-methyl-2-(methylamino)propan-1-one], for which the pIC50 is 8.15. The figure for `Cc1cc(Nc2nc(Nc3cc(C)c(C4CCN(Cc5noc(C)n5)CC4)cc3C)ncc2Cl)n[nH]1` [Compound 304, 5-chloro-N2-(2,5-dimethyl-4-(1-((5-methyl-1,2,4-oxadiazol-3-yl)methyl)piperidin-4-yl)phenyl)-N4-(5-methyl-1H-pyrazol-3-yl)pyrimidine-2,4-diamine] is 8.30. Take `Cc1cc(Nc2nc(Nc3cc(C)c(C4CCN(C5CCOCC5)CC4)cc3C)ncc2Cl)n[nH]1` [Compound 252, 5-chloro-N2-(2,5-dimethyl-4-(1-(tetrahydro-2H-pyran-4-yl)piperidin-4-yl)phenyl)-N4-(5-methyl-1H-pyrazol-3-yl)pyrimidine-2,4-diamine]: the pIC50 is 7.85.

In turn, `Cc1cc(Nc2nc(Nc3cc(Cl)c(C4CCN(CCS(=O)(=O)N5CCC5)CC4)cc3C)ncc2Cl)n[nH]1` [Compound 60, N2-(4-(1-(2-(azetidin-1-ylsulfonyl)ethyl)piperidin-4-yl)-5-chloro-2-methylphenyl)-5-chloro-N4-(5-methyl-1H-pyrazol-3-yl)pyrimidine-2,4-diamine] had a pIC50 of 7.96.

Take `Cc1cc(Nc2nc(Nc3cc(C)c(C4CCN(S(=O)(=O)CCCN5CC[C@@H](O)C5)CC4)cc3C)ncc2Cl)n[nH]1` [Compound 234, (R)-1-(3-(4-(4-(5-chloro-4-(5-methyl-1H-pyrazol-3-ylamino)pyrimidin-2-ylamino)-2,5-dimethylphenyl)piperidin-1-ylsulfonyl)propyl)pyrrolidin-3-ol]: the negative-log IC50 (pIC50) is 7.14. The figure for `Cc1cc(Nc2nc(Nc3cc(C(F)(F)F)c(C4CCN(CC(N)=O)CC4)cc3F)ncc2Cl)n[nH]1` [Compound 36, 2-(4-(4-(5-chloro-4-(5-methyl-1H-pyrazol-3-ylamino)pyrimidin-2-ylamino)-5-fluoro-2-(trifluoromethyl)phenyl)piperidin-1-yl)acetamide] is 7.72. `Cc1cc(Nc2nc(Nc3cc(C)c(C4CCN(C5CCNCC5)CC4)cc3F)ncc2Cl)n[nH]1` [Compound 276, N2-(4-(1,4′-bipiperidin-4-yl)-2-fluoro-5-methylphenyl)-5-chloro-N4-(5-methyl-1H-pyrazol-3-yl)pyrimidine-2,4-diamine] had a negative logarithm of the IC50 (pIC50) of 6.36. The figure for `Cc1cc(Nc2nc(Nc3cc(C)c(C4CCN(C(=O)CN5C(C)CCCC5C)CC4)cc3C)ncc2Cl)n[nH]1` (stereo not drawn) [Compound 103, 1-(4-(4-(5-chloro-4-(5-methyl-1H-pyrazol-3-ylamino)pyrimidin-2-ylamino)-2,5-dimethylphenyl)piperidin-1-yl)-2-(2,6-dimethylpiperidin-1-yl)ethanone] is 8.05; for `Cc1cc(Nc2nc(Nc3cc(C)c(C4CCN(C5CCN(S(C)(=O)=O)C5)CC4)cc3F)ncc2Cl)n[nH]1` (stereo not drawn) [Compound 301, 5-chloro-N2-(2-fluoro-5-methyl-4-(1-(1-(methylsulfonyl)pyrrolidin-3-yl)piperidin-4-yl)phenyl)-N4-(5-methyl-1H-pyrazol-3-yl)pyrimidine-2,4-diamine] it is 7.42.
